Numbered stars: 1 amine (or outer) side, 2 acyl side, 3 side chain; on linkers, the order of the positions; unused ones are H or OH. Square brackets hold non-standard residues; d marks the D form. Peptide text beside a SMILES is read from it. * marks the point of attachment. X3 = NCCCC[C@@H](C(=O)[*:2])N(C[C@@H](N)CCCN=C(N)N)[*:1]; X1 = NCCCC[C@H](N)CN([C@@H](CCCCN)C(=O)[*:2])[*:1]; X2 = NCCCCCCN([C@@H](CCCCN)C(=O)[*:2])[*:1]; X6 = N=C(N)NCCCC(CCCNC(=N)N)C(=O)*; X7 = NC(N)=NCCCC(CCCN=C(N)N)C(=O)*; NMeR = CN[C@@H](CCCNC(=N)N)C(=O)O; Tle = CC(C)(C)[C@H](N)C(=O)O; X4 = NCCCCC(CCCCN)C(=O)*; X5 = NCCCC(CCCN)C(=O)*
Key:
Mus musculus [1] = assay: Compound was tested in vivo for its ability to inhibit spontaneous locomotor activity of mice after intraperitoneal administration; format: functional; settings: ip
[2] = molecular target: T1, Neurotensin receptor type 1 (Mus musculus, UniProt O88319); assay: Binding affinity for Neurotensin Receptor
[3] = molecular target: T1, Neurotensin receptor type 1; assay: Compound was tested in vitro for its binding affinity against Neurotensin Receptor […]
Mus musculus [4] = assay: Compound was tested in vivo for its ability to inhibit spontaneous locomotor activity of mice; intraperitoneal administration; format: functional; settings: ip
Mus musculus [5] = assay: Analgesic activity was evaluated in the acetic acid induced stretching paradigm after subcutaneous administration; format: functional; settings: sc
Mus musculus [6] = assay: Compound was tested in vivo for its ability to inhibit spontaneous locomotor activity of mice after intracerebroventricular administration; format: functional; settings: central
HT-29 = assay: Compound was tested in vitro to mobilize calcium from HT-29 cells; format: functional, cell-based; settings: Homo sapiens

T1 sequence (O88319 whole entry): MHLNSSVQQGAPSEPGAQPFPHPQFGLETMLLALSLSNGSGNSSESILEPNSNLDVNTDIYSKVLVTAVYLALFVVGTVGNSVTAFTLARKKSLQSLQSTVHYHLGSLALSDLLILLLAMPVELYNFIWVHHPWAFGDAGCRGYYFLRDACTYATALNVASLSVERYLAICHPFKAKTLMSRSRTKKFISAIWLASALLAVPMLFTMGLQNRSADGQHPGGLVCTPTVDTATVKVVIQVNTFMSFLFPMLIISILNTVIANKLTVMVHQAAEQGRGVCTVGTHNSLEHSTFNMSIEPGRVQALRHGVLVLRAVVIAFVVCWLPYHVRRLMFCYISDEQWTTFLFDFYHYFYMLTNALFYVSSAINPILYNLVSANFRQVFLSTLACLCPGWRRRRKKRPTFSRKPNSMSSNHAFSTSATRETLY

Row | Ki [2] [nM] | Structure (SMILES) | ED50 (Mus musculus [1]) [mg/kg] | also measured
1 | 60 | CC(C)C[C@H](NC(=O)[C@@H](NC(=O)[C@H](Cc1c[nH]c2ccccc12)NC(=O)[C@@H]1CCCN1C(=O)[C@@H](N)CCCCN)C(C)(C)C)C(=O)O (H-KPW[Tle]L-OH) | > 10 | 
2 |  | CN[C@@H](CCCNC(=N)N)C(=O)N[C@@H](CCCCN)C(=O)N1CCC[C@H]1C(=O)N[C@@H](Cc1c[nH]c2ccccc12)C(=O)N[C@H](C(=O)N[C@@H](CC(C)C)C(=O)O)C(C)(C)C (H-[NMeR]KPW[Tle]L-OH) |  | Ki [3]: 0.064 nM
3 |  | CC[C@H](C)[C@H](NC(=O)[C@H](Cc1ccc(O)cc1)NC(=O)[C@@H]1CCCN1C(=O)[C@H](CCCNC(=N)N)NC(=O)[C@@H](N)CCCNC(=N)N)C(=O)N[C@@H](CC(C)C)C(=O)O [listing 1 of 2 here] |  | ED50 (Mus musculus [4]): > 10 mg/kg; ED50 (Mus musculus [5]): > 10 mg/kg
4 |  | CC[C@H](C)[C@H](NC(=O)[C@H](Cc1ccc(O)cc1)NC(=O)[C@@H]1CCCN1C(=O)[C@H](CCCCN)NC[C@@H](N)CCCCN)C(=O)N[C@@H](CC(C)C)C(=O)O (H-[X1]PYIL-OH) [listing 1 of 2 here] | > 10 | 
5 |  | CCOC(=O)[C@H](CC(C)C)NC(=O)[C@@H](NC(=O)[C@H](Cc1c[nH]c2ccccc12)NC(=O)[C@@H]1CCCN1C(=O)[C@H](CCCCN)NC[C@@H](N)CCCN=C(N)N)C(C)(C)C (H-[X3]PW[Tle]L-OEt) [listing 1 of 2 here] |  | ED50 (Mus musculus [4]): 0.15 mg/kg; ED50 (Mus musculus [6]): 1.6 mg/kg
6 |  | CC(C)C[C@H](NC(=O)[C@@H](NC(=O)[C@H](Cc1c[nH]c2ccccc12)NC(=O)[C@@H]1CCCN1C(=O)C(CCCN)CCCN)C(C)(C)C)C(=O)O (X5-PW[Tle]L-OH) [listing 1 of 2 here] | 0.5 | 
7 | 17 | CC(C)C[C@H](NC(=O)[C@@H](NC(=O)[C@H](Cc1c[nH]c2ccccc12)NC(=O)[C@@H]1CCCN1C(=O)C(CCCN)CCCN)C(C)(C)C)C(=O)O (X5-PW[Tle]L-OH) [listing 2 of 2 here] |  | 
8 | 31.2 | CCOC(=O)[C@H](CC(C)C)NC(=O)[C@@H](NC(=O)[C@H](Cc1c[nH]c2ccccc12)NC(=O)[C@@H]1CCCN1C(=O)[C@H](CCCCN)NC[C@@H](N)CCCCN)C(C)(C)C (H-[X1]PW[Tle]L-OEt) [listing 1 of 2 here] |  | EC50 (HT-29): 4500 nM
9 | 17.1 | CC(C)C[C@H](NC(=O)[C@@H](NC(=O)[C@H](Cc1c[nH]c2ccccc12)NC(=O)[C@@H]1CCCN1C(=O)[C@H](CCCCN)NC[C@@H](N)CCCN=C(N)N)C(C)(C)C)C(=O)O (H-[X3]PW[Tle]L-OH) [listing 1 of 2 here] |  | 
10 |  | CC(C)C[C@H](NC(=O)[C@@H](NC(=O)[C@H](Cc1c[nH]c2ccccc12)NC(=O)[C@@H]1CCCN1C(=O)C(CCCCN)CCCCN)C(C)(C)C)C(=O)O (X4-PW[Tle]L-OH) [listing 1 of 2 here] | 0.6 | 
11 |  | CCOC(=O)[C@H](CC(C)C)NC(=O)[C@@H](NC(=O)[C@H](Cc1c[nH]c2ccccc12)NC(=O)[C@@H]1CCCN1C(=O)[C@H](CCCCN)NCCCCCCN)C(C)(C)C (H-[X2]PW[Tle]L-OEt) [listing 1 of 2 here] |  | ED50 (Mus musculus [4]): 0.3 mg/kg; ED50 (Mus musculus [5]): 0.05 mg/kg
12 |  | CC(C)C[C@H](NC(=O)[C@@H](NC(=O)[C@H](Cc1c[nH]c2ccccc12)NC(=O)[C@@H]1CCCN1C(=O)[C@H](CCCCN)NC[C@@H](N)CCCN=C(N)N)C(C)(C)C)C(=O)O (H-[X3]PW[Tle]L-OH) [listing 2 of 2 here] |  | ED50 (Mus musculus [4]): 0.48 mg/kg; ED50 (Mus musculus [5]): 0.3 mg/kg
13 |  | CCOC(=O)[C@H](CC(C)C)NC(=O)[C@@H](NC(=O)[C@H](Cc1c[nH]c2ccccc12)NC(=O)[C@@H]1CCCN1C(=O)[C@H](CCCCN)NC[C@@H](N)CCCCN)C(C)(C)C (H-[X1]PW[Tle]L-OEt) [listing 2 of 2 here] | 0.21 | 
14 | 0.1 | CC(C)C[C@H](NC(=O)[C@@H](NC(=O)[C@H](Cc1c[nH]c2ccccc12)NC(=O)[C@@H]1CCCN1C(=O)C(CCCNC(=N)N)CCCNC(=N)N)C(C)(C)C)C(=O)O (stereo partly drawn) (X6-PW[Tle]L-OH) |  | 
15 |  | CC[C@H](C)[C@H](NC(=O)[C@H](Cc1ccc(O)cc1)NC(=O)[C@@H]1CCCN1C(=O)[C@H](CCCNC(=N)N)NC(=O)[C@@H](N)CCCNC(=N)N)C(=O)N[C@@H](CC(C)C)C(=O)O [listing 2 of 2 here] |  | EC50 (HT-29): 4.21 nM
16 | 0.4 | CC(C)C[C@H](NC(=O)[C@@H](NC(=O)[C@H](Cc1ccc(O)cc1)NC(=O)[C@@H]1CCCN1C(=O)[C@H](CCCCN)NC[C@@H](N)CCCCN)C(C)(C)C)C(=O)O (H-[X1]PY[Tle]L-OH) [listing 1 of 2 here] |  | EC50 (HT-29): 512 nM
17 |  | CC(C)C[C@H](NC(=O)[C@@H](NC(=O)[C@H](Cc1c[nH]c2ccccc12)NC(=O)[C@@H]1CCCN1C(=O)[C@H](CCCCN)NC[C@@H](N)CCCCN)C(C)(C)C)C(=O)O (H-[X1]PW[Tle]L-OH) [listing 1 of 2 here] | 0.14 | 
18 | 0.06 | CC[C@H](C)[C@H](NC(=O)[C@H](Cc1c[nH]c2ccccc12)NC(=O)[C@@H]1CCCN1C(=O)[C@H](CCCCN)NC[C@@H](N)CCCCN)C(=O)N[C@@H](CC(C)C)C(=O)O (H-[X1]PWIL-OH) [listing 1 of 2 here] |  | EC50 (HT-29): 110 nM
19 | 27 | CCOC(=O)[C@H](CC(C)C)NC(=O)[C@@H](NC(=O)[C@H](Cc1c[nH]c2ccccc12)NC(=O)[C@@H]1CCCN1C(=O)[C@H](CCCCN)NCCCCCCN)C(C)(C)C (H-[X2]PW[Tle]L-OEt) [listing 2 of 2 here] |  | 
20 |  | CC(C)C[C@H](NC(=O)[C@@H](NC(=O)[C@H](Cc1c[nH]c2ccccc12)NC(=O)[C@@H]1CCCN1C(=O)C(CCCN=C(N)N)CCCN=C(N)N)C(C)(C)C)C(=O)O (X7-PW[Tle]L-OH) | 1.5 | 
21 |  | CC[C@H](C)[C@H](NC(=O)[C@H](Cc1c[nH]c2ccccc12)NC(=O)[C@@H]1CCCN1C(=O)[C@H](CCCCN)NC[C@@H](N)CCCCN)C(=O)N[C@@H](CC(C)C)C(=O)O (H-[X1]PWIL-OH) [listing 2 of 2 here] | 6.3 | 
22 | 437 | CCOC(=O)[C@H](CC(C)C)NC(=O)[C@@H](NC(=O)[C@H](Cc1c[nH]c2ccccc12)NC(=O)[C@@H]1CCCN1C(=O)[C@H](CCCCN)NC[C@@H](N)CCCN=C(N)N)C(C)(C)C (H-[X3]PW[Tle]L-OEt) [listing 2 of 2 here] |  | 
23 | 1.13 | CC(C)C[C@H](NC(=O)[C@@H](NC(=O)[C@H](Cc1c[nH]c2ccccc12)NC(=O)[C@@H]1CCCN1C(=O)[C@H](CCCCN)NC[C@@H](N)CCCCN)C(C)(C)C)C(=O)O (H-[X1]PW[Tle]L-OH) [listing 2 of 2 here] |  | EC50 (HT-29): 362 nM
24 | 3.8 | CC(C)C[C@H](NC(=O)[C@@H](NC(=O)[C@H](Cc1c[nH]c2ccccc12)NC(=O)[C@@H]1CCCN1C(=O)C(CCCCN)CCCCN)C(C)(C)C)C(=O)O (X4-PW[Tle]L-OH) [listing 2 of 2 here] |  | 
25 |  | CC(C)C[C@H](NC(=O)[C@@H](NC(=O)[C@H](Cc1ccc(O)cc1)NC(=O)[C@@H]1CCCN1C(=O)[C@H](CCCCN)NC[C@@H](N)CCCCN)C(C)(C)C)C(=O)O (H-[X1]PY[Tle]L-OH) [listing 2 of 2 here] | 0.9 | 

Row | Structure (SMILES) | Ki [2] [nM] | ED50 (Mus musculus [1]) [mg/kg] | also measured
26 | CC[C@H](C)[C@H](NC(=O)[C@H](Cc1ccc(O)cc1)NC(=O)[C@@H]1CCCN1C(=O)[C@H](CCCCN)NC[C@@H](N)CCCCN)C(=O)N[C@@H](CC(C)C)C(=O)O (H-[X1]PYIL-OH) [listing 2 of 2 here] | 0.15 |  | 

— ChEMBL document CHEMBL1150005, “Reduced amide bond neurotensin 813 mimetics with potent in vivo activity” (Bioorg Med Chem Lett, 1995)
